# Where two headings read alike, the source gives them in different places.
# What was measured:
# DNA viruses = type: cell-based
# [1] = tested on: herpes simplex virus type 1 (HSV-1) (KOS)
# [2] = tested on: HSV-1 TK^− (KOS acyclovir resistant, ACV)
# [3] = tested on: thymidine kinase-deficient VZV strain 07/1
# [4] = in vivo; cited from earlier work
# UMP-CMP kinase (hUCK) = target: T1, UMP-CMP kinase (hUCK) (Homo sapiens, UniProt P30085); settings: cited from earlier work
# T1 sequence (P30085 1-196): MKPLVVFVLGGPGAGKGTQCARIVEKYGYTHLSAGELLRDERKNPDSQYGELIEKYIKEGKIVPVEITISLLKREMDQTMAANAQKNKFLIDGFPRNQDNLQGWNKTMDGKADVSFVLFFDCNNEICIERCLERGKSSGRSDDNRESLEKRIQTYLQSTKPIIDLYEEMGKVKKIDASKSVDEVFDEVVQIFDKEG
structure (smiles),measurement,setting,value
CC(C)(C)C(=O)OCOP(=O)(C/C=C\Cn1ccc(=O)[nH]c1=O)OCOC(=O)C(C)(C)C [Ia2],"antiviral activity, [Z] versus corresponding [E] isomers",DNA viruses; HEL cell cultures,"clearly less, or not antivirally active"
"CC(C)(C)C(=O)OCOP(=O)(C/C=C/Cn1cc(Br)c(=O)[nH]c1=O)OCOC(=O)C(C)(C)C [Ie1, (E)-N^1-(4′-bis(POM)-phosphinyl-2′-butenyl)-5-bromo-uracil]",inhibitory activity against HSV-1,[1],most inhibitory
same,inhibitory activity against HSV-2,HSV-2 (G),most inhibitory
same,antiviral activity against mutant TK-deficient HSV-1 TK^−,[2],pronounced antiviral activity
same,inhibitory activity against VZV,VZV strain OKA,most inhibitory
same,antiviral activity against mutant TK-deficient VZV TK,[3],pronounced antiviral activity
"CC(C)(C)C(=O)OCOP(=O)(C/C=C\Cn1cc(Br)c(=O)[nH]c1=O)OCOC(=O)C(C)(C)C [Ie2, (Z)—N^1-(4′-bis(POM)-phosphinyl-2′-butenyl)-5-bromo-uracil]","antiviral activity, [Z] versus corresponding [E] isomers",DNA viruses,"clearly less, or not antivirally active"
Nc1ncnc2c1ncn2CCOCP(=O)(O)OP(=O)(O)OP(=O)(O)O [PMEA-PP],half-life in the body,[4],> 15 H
Nc1ccn(C[C@@H](CO)OCP(=O)(O)O)c(=O)n1 [cidofovir],substrate for hUCK,UMP-CMP kinase (hUCK),not a substrate for hUCK
